Assay results published in patent US8247530B2, “N-alkylated cyclic peptide melanocortin agonists” (Palatin Technologies, Inc., priority 2005, dated 2012).
Where a SMILES comes first, the peptide text is derived from it. Bridges are numbered along the chain shown (N, C = ends). [ ]: non-standard residue; d: D form. 1Nal = N[C@@H](Cc1cccc2ccccc12)C(=O)O; Nle = CCCC[C@H](N)C(=O)O

Assays:
hMC3-R (HEK-293 cells) = molecular target: T1, hMC3-R (HEK-293 cells) (Homo sapiens, UniProt P41968); assay: cAMP functional assay for agonist/antagonist status, MC3-R; type: cell-based; conditions: for EC50: cAMP accumulation; for agonist/antagonist status as to MC3-R: cAMP assay; for efficacy relative to NDP-α-MSH, MC3-R: cAMP response ratio to NDP-α-MSH
T1 construct: expressed in transfected cells; host or cells: HEK-293
T1 sequence (P41968 whole entry): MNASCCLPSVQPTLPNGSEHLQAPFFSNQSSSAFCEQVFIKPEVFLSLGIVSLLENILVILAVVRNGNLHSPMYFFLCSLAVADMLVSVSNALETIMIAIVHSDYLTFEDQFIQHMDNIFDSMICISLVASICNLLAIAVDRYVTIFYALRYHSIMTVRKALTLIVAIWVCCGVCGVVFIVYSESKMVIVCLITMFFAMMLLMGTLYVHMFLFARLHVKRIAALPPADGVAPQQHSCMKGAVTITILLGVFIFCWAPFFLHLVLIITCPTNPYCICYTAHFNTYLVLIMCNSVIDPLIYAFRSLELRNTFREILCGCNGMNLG
Description: (§1) Functional evaluation of peptides at melanocortin receptors was performed by measuring the accumulation of intracellular cAMP in HEK-293 cells expressing hMC3-R, hMC4-R or hMC5-R, and in B-16 mouse melanoma cells expressing MC1-R. Cells suspended in Earle's Balanced Salt Solution containing 10 mM HEPES (pH 7.5), 5 mM MgCl2, 1 mM glutamine, 0.5% albumin and 0.3 mM 3-isobutyl-1-methyl-xanthine, a phosphodiesterase inhibitor, were plated in 96 well plates at a density of 0.5×10^5 cells per well. Cells were incubated with the test peptides in the presence or absence of NDP-α-MSH for 1 hour at 37° C. cAMP levels in the cell lysates were measured using an EIA kit (Amersham). Data analysis and EC50 values were determined using nonlinear regression analysis with Prism Graph-Pad software.
(§2) The agonist/antagonist status with respect to MC1-R, MC4-R and MC5-R of certain peptides of the invention was determined. Antagonistic activity was determined by measuring the inhibition of α-MSH-induced or NDP-α-MSH-induced cAMP levels following exposure to the peptides as in the preceding descriptions.

male Sprague-Dawley rats = assay: Penile erection induction in male rats; type: in vivo, rat; conditions: 1000 μg/kg IV, groups of 6 rats, one hour observation
Description: The ability of peptides to induce penile erection (PE) in male rats was evaluated with selected peptides. Male Sprague-Dawley rats weighing 200-250 g were kept on a 12 hour on/off light cycle with food and water ad libitum. All behavioral studies were performed between 10 a.m. and 5 p.m. Groups of 4-8 rats were administered peptides at a variety of doses via an intravenous (IV) route, and may alternatively be administered peptide by an intracerebroventricular (ICV) route. Immediately after treatment, rats were placed into individual polystyrene cages (27 cm long, 16 cm wide, and 25 cm high) for behavioral observation. […] For rats administered peptide by an ICV routes, rats are observed for two hours.
Selected peptides were tested as in Example 5. Peptide was administered by IV routes, and used at dose levels ranging from 1 μg/kg to 1000 μg/kg.

MC3-R [1] = molecular target: T2, MC3-R (Homo sapiens, UniProt P41968); assay: Competitive inhibition binding assay using [I125]-NDP-α-MSH, hMC3-R; conditions: radioligand [I125]-NDP-α-MSH, HEK-293 membranes; read-out: Ki (NDP-α-MSH) MC3-R
T2 construct: expressed in transfected cells; host or cells: HEK-293
T2 sequence (P41968 whole entry): as above
Description: (§3) The assay tube also contained a chosen concentration of the test peptide of this invention, typically a 1 μM concentration, for determining its efficacy in inhibiting the binding of [I^125]NDP-α-MSH to the receptor.
(§4) The assay mixture was incubated for 60 minutes at 37° C., then filtered and the membranes washed three times with ice cold phosphate buffered saline. The filter was dried and counted in a gamma counter for remaining radioactivity bound to the membranes. 100% specific binding was defined as the difference in radioactivity (cpm) bound to cell membranes in the absence and presence of 1 μM NDP-α-MSH. […] Each assay was conducted in triplicate. The Ki (nM) of certain peptides of the invention were determined using similar assay protocols and testing peptides over a wider dose range.

hMC5-R = molecular target: T3, hMC5-R (Homo sapiens, UniProt P33032); assay: Competitive inhibition binding assay using [I125]-NDP-α-MSH, hMC5-R; conditions: radioligand [I125]-NDP-α-MSH, HEK-293 membranes; read-out: Ki (NDP-α-MSH) MC5-R
T3 construct: expressed in transfected cells; host or cells: HEK-293
T3 sequence (P33032 whole entry): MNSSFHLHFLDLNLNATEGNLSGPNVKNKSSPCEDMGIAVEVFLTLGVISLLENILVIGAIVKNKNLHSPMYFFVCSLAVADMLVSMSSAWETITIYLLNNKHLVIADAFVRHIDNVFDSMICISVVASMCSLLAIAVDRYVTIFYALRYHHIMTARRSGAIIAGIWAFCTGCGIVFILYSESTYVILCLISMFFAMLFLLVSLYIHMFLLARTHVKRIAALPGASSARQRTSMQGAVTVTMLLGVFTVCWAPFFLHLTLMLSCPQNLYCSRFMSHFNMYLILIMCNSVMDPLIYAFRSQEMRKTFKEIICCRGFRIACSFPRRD
Description: as §3, §4

hMC4-R (HEK-293 cells) = molecular target: T4, hMC4-R (HEK-293 cells) (Homo sapiens, UniProt P32245); assay: cAMP functional assay for agonist/antagonist status, MC4-R; type: cell-based; conditions: for EC50: cAMP accumulation; for agonist/antagonist status as to MC4-R: cAMP assay; for efficacy relative to NDP-α-MSH, MC4-R: cAMP response ratio to NDP-α-MSH
T4 construct: expressed in transfected cells; host or cells: HEK-293
T4 sequence (P32245 whole entry): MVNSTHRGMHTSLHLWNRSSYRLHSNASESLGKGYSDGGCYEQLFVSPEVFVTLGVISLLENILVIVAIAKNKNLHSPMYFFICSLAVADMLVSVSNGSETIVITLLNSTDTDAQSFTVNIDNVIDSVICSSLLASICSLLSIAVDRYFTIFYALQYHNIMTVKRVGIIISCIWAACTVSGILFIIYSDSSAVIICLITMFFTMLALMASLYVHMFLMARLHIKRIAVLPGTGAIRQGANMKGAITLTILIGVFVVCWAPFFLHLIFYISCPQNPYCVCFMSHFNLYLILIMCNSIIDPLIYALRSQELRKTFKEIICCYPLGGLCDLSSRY
Description: as §1, §2
Evaluation of the molecules to elicit a functional response in HEK-293 cells expressing hMC4-R for agonistic activity was done by measuring the accumulation of intracellular cAMP following treatment. Confluent HEK-293 cells over-expressing MC4-R receptors were detached by enzyme free cell suspension buffer. Cells were suspended in Earle's Balanced Salt Solution containing 10 mM HEPES (pH 7.5), 1 mM MgCl2, 1 mM glutamine, 0.5% albumin and 0.3 mM 3-isobutyl-1-methyl-[…]. The cells were plated in a 96 well plate at a density of 0.5×10^5 cells per well and pre-incubated for 60 minutes. The cells were then challenged with the test peptides dissolved in dimethylsulfoxide (DMSO) at a concentration range of 0.05-5000 nM in a total assay volume of 200 μL for 1 hour at 37° C. The concentration of DMSO was held at 1% in the assay mixture. NDP-α-MSH was used as the reference agonist. At the end of the incubation period the cells were disrupted by the addition of 50 μL lysis buffer from the cAMP EIA kit (Amersham). Complete rupture of the cells was ensured by pipetting the cells. cAMP levels in the cell lysates were measured after appropriate dilution using the EIA kit (Amersham) method. Data analysis and EC50 values were determined by using nonlinear regression analysis with the Prism Graph-Pad software.

[2] = molecular target: T5, MC1-R (B-16 mouse melanoma cells) (Mus musculus, UniProt Q01727); assay: cAMP functional assay for agonist/antagonist status, MC1-R; type: cell-based; conditions: for EC50: cAMP accumulation; for agonist/antagonist status as to MC1-R: cAMP assay; for efficacy relative to NDP-α-MSH, MC1-R: cAMP response ratio to NDP-α-MSH
T5 construct: B-16 mouse melanoma cells (containing MC1-R); endogenous in cells; host or cells: B-16 mouse melanoma cells
T5 sequence (Q01727 whole entry): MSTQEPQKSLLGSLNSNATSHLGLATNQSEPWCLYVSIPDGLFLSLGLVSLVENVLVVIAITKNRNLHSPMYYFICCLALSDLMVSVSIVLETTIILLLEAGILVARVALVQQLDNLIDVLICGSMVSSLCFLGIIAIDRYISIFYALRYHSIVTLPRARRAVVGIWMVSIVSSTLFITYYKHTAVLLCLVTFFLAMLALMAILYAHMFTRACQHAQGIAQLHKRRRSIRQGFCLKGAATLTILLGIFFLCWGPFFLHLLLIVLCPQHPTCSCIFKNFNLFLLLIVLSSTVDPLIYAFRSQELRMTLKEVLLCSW
Description: Data analysis and EC50 values were determined using nonlinear regression analysis with Prism Graph-Pad software.
The agonist/antagonist status with respect to MC1-R, MC4-R and MC5-R of certain peptides of the invention was determined.

MC4-R [3] = molecular target: T6, MC4-R (Homo sapiens, UniProt P32245); assay: Competitive inhibition Ki (AgRP), MC4-R; type: binding; conditions: AgRP as competing ligand
T6 construct: expressed in transfected cells; host or cells: HEK-293
T6 sequence (P32245 whole entry): as the sequence (P32245 whole entry) above

[4] = molecular target: T5, MC1-R (B-16 mouse melanoma cells); assay: Competitive inhibition binding assay using [I125]-NDP-α-MSH, MC1-R; conditions: radioligand [I125]-NDP-α-MSH, B-16 mouse melanoma membranes
Description: The assay mixture was incubated for 60 minutes at 37° C., then filtered and the membranes washed three times with ice cold phosphate buffered saline. The filter was dried and counted in a gamma counter for remaining radioactivity bound to the membranes. […] Each assay was conducted in triplicate.

MC4-R [5] = molecular target: T6, MC4-R; assay: Competitive inhibition binding assay using [I125]-NDP-α-MSH, hMC4-R; conditions: radioligand [I125]-NDP-α-MSH, HEK-293 membranes; read-out: Ki (NDP-α-MSH) MC4-R
Description: as §3, §4

MC3-R [6] = molecular target: T2, MC3-R; assay: Competitive inhibition Ki (AgRP), MC3-R; type: binding; conditions: AgRP as competing ligand
Description: as §4

Row | SMILES | EC50 (hMC3-R (HEK-293 cells)) | efficacy relative to NDP-α-MSH, MC3-R (hMC3-R (HEK-293 cells)) | Ki (MC3-R [1]) | Ki (hMC5-R) | EC50 (hMC4-R (HEK-293 cells)) | efficacy relative to NDP-α-MSH, MC4-R (hMC4-R (HEK-293 cells)) | EC50 [2] | efficacy relative to NDP-α-MSH, MC1-R [2] | Ki (MC4-R [3]) | Ki [4] | Ki (MC4-R [5]) | Ki (MC3-R [6]) | agonist/antagonist status as to MC3-R (hMC3-R (HEK-293 cells)) | rats exhibiting at least one PE (male Sprague-Dawley rats) | agonist/antagonist status as to MC4-R (hMC4-R (HEK-293 cells)) | agonist/antagonist status as to MC1-R [2]
1 | CCNC(=O)[C@@H]1CCCCNC(=O)C[C@H](NC(C)=O)C(=O)N[C@@H](Cc2c[nH]c3ccccc23)C(=O)N[C@H](Cc2ccccc2)C(=O)N[C@@H](CCCNC(=N)N)C(=O)N[C@@H](Cc2cccc3ccccc23)C(=O)N1 [Example 14, Ac-cyclo(-Asp-Trp-D-Phe-Arg-Nal 1-Lys)-NH—CH2—CH3] (Ac-DW[dF]R[1Nal]K-NHEt; lactam 1-6 (inferred)) |  |  | 886 nM | > 2000 nM | 698 nM | 0.7 |  |  | 71 nM | 166 nM | 45 nM | > 10000 nM | inactive |  | agonist (response ratio compared to NDP-α-MSH of 0.7 and above were classified as full agonists) | inactive
2 | CC(=O)N[C@H]1CC(=O)NCCCC[C@@H](C(=O)N(C)C)NC(=O)[C@H](Cc2cccc3ccccc23)NC(=O)[C@H](CCCNC(=N)N)NC(=O)[C@@H](Cc2ccccc2)NC(=O)[C@H](Cc2c[nH]c3ccccc23)NC1=O [Example 15, Ac-cyclo(-Asp-Trp-D-Phe-Arg-Nal 1-Lys)-N(CH3)2] (Ac-DW[dF]R[1Nal]K-NMe2; lactam 1-6 (inferred)) |  |  | 964 nM | 549 nM | 1540 nM | 0.9 |  |  | 233 nM | 215 nM | 122 nM | > 3000 nM | inactive |  | agonist (response ratio compared to NDP-α-MSH of 0.7 and above were classified as full agonists) | inactive
3 | CCNC(=O)[C@@H]1CCCCNC(=O)C[C@H](NC(C)=O)C(=O)N[C@@H](Cc2c[nH]cn2)C(=O)N[C@H](Cc2ccccc2)C(=O)N[C@@H](CCCNC(=N)N)C(=O)N[C@@H](Cc2cccc3ccccc23)C(=O)N1 [Example 16, Ac-cyclo(-Asp-His-D-Phe-Arg-Nal 1-Lys)-NH—CH2—CH3] (Ac-DH[dF]R[1Nal]K-NHEt; lactam 1-6 (inferred)) | 6210 nM | 0.8 | 462 nM | 937 nM | 500 nM | 1.1 | 6410 nM | 0.9 | 284 nM | 18 nM | 157 nM | > 2000 nM | agonist (response ratio compared to NDP-α-MSH of 0.7 and above were classified as full agonists) |  | agonist (response ratio compared to NDP-α-MSH of 0.7 and above were classified as full agonists) | agonist (response ratio compared to NDP-α-MSH of 0.7 and above were classified as full agonists)
4 | CCCC[C@H](NC(C)=O)C(=O)N[C@H]1CC(=O)NCCCC[C@@H](C(=O)NCC)NC(=O)[C@H](Cc2cccc3ccccc23)NC(=O)[C@H](CCCNC(=N)N)NC(=O)[C@@H](Cc2ccccc2)NC(=O)[C@H](Cc2c[nH]c3ccccc23)NC1=O [Example 18, Ac-Nle-cyclo(-Asp-Trp-D-Phe-Arg-Nal 1-Lys)-NH—CH2—CH3] (Ac-[Nle]DW[dF]R[1Nal]K-NHEt; lactam 2-7 (inferred)) | 1820 nM | 0.2 |  |  |  | 0.6 | 397 nM | 0.3 | 26 nM | 3 nM |  |  | partial agonist (Peptides with a ratio from 0.1 to 0.7 were classified as partial agonists) |  | partial agonist (Peptides with a ratio from 0.1 to 0.7 were classified as partial agonists) | partial agonist (Peptides with a ratio from 0.1 to 0.7 were classified as partial agonists)

More lines, main results first:

Row | EC50 (hMC3-R (HEK-293 cells)) | efficacy relative to NDP-α-MSH, MC3-R (hMC3-R (HEK-293 cells)) | Ki (MC3-R [1]) | Ki (hMC5-R) | EC50 (hMC4-R (HEK-293 cells)) | efficacy relative to NDP-α-MSH, MC4-R (hMC4-R (HEK-293 cells)) | EC50 [2] | efficacy relative to NDP-α-MSH, MC1-R [2] | Ki (MC4-R [3]) | Ki [4] | Ki (MC4-R [5]) | Ki (MC3-R [6]) | SMILES | agonist/antagonist status as to MC3-R (hMC3-R (HEK-293 cells)) | rats exhibiting at least one PE (male Sprague-Dawley rats) | agonist/antagonist status as to MC4-R (hMC4-R (HEK-293 cells)) | agonist/antagonist status as to MC1-R [2]
5 | 1250 nM | 1.3 | 154 nM | > 1000 nM | 5 nM | 0.6 | 151 nM | 0.7 | 18 nM | 2 nM | 12 nM |  | CC(=O)N[C@H]1CC(=O)NCCCC[C@@H](C(=O)N(C)C)NC(=O)[C@H](Cc2c[nH]c3ccccc23)NC(=O)[C@H](CCCNC(=N)N)NC(=O)[C@@H](Cc2ccccc2)NC(=O)[C@H](Cc2c[nH]cn2)NC1=O [Example 13, Ac-cyclo(-Asp-His-D-Phe-Arg-Trp-Lys)-N(CH3)2] | agonist (response ratio compared to NDP-α-MSH of 0.7 and above were classified as full agonists) | 100% | partial agonist (Peptides with a ratio from 0.1 to 0.7 were classified as partial agonists) | agonist (response ratio compared to NDP-α-MSH of 0.7 and above were classified as full agonists)
6 | > 1000 nM | 0.4 | > 10000 nM | > 10000 nM | 91 nM | 0.93 | 2360 nM | 1.0 |  | 40 nM | 92 nM |  | CC(=O)N[C@H]1CC(=O)NCCCC[C@@H](C(=O)N(C)C)NC(=O)[C@H](Cc2cccc3ccccc23)NC(=O)[C@H](CCCNC(=N)N)NC(=O)[C@@H](Cc2ccccc2)NC(=O)[C@H](Cc2c[nH]cn2)NC1=O [Example 17, Ac-cyclo(-Asp-His-D-Phe-Arg-Nal 1-Lys)-N(CH3)2] (Ac-DH[dF]R[1Nal]K-NMe2; lactam 1-6 (inferred)) | partial agonist (Peptides with a ratio from 0.1 to 0.7 were classified as partial agonists) | 100% | agonist (response ratio compared to NDP-α-MSH of 0.7 and above were classified as full agonists) | agonist (response ratio compared to NDP-α-MSH of 0.7 and above were classified as full agonists)
